Measured values published in patent US20240059703A1 (AMGEN INC., priority 2021, published 2024).

Target: KRAS G12C (Homo sapiens (Human), UniProt P01116, C118A/G12C)
Assay: 2 h coupled exchange assay
Type: biochemical
Conditions: Avg 2 h Coupled exchange IC50, 2 h compound pre-incubation
Method: The term “2 h coupled exchange assay” or “20 h coupled exchange assay” as used herein refers to the assay described in the Section entitled “BIOLOGICAL EVALUATION.”

Sequence of KRAS G12C (P01116 other isoform, or with tags, fused parts or gaps G12C/C118A): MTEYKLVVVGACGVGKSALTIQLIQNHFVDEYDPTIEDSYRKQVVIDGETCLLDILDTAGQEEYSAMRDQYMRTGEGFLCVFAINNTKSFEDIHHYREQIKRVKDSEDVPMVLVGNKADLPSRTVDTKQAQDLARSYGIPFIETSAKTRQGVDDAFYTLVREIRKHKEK

SMILES | IC50 [nM]
C=CC(=O)N1CC2(CCN(c3nc4c(c(-c5c(C)ccc6cnn(C)c56)c3F)C[C@H]3C[C@@H]4C3(C)C)C2)C1 (single isomer, unassigned) [Example 14-63] | 364
C=CC(=O)N1CC2(CCN(c3nc4c(c(-c5c(C)ccc6cn[nH]c56)c3C#N)C[C@H]3C[C@@H]4C3(C)C)C2)C1 (single isomer, unassigned) [Example 14-52] | 1020
C=CC(=O)N1CC2(CCN(c3nc4cc(-c5ocnc5C)ccc4c(-c4ccccc4Cl)c3C#N)C2)C1 [Example 17-9, 4-(2-chlorophenyl)-7-(4-methyl-1,3-oxazol-5-yl)-2-(2-(2-propenoyl)-2,6-diazaspiro[3.4]octan-6-yl)-3-quinolinecarbonitrile] | 722

Same assay, conditions: Avg 2 h Coupled exchange IC50, 2 h compound pre-incubation, SOS-mediated nucleotide exchange

SMILES | IC50 [nM]
C=CC(=O)N1CC2(CCN(c3nc4c(c(-c5c(C)ccc6cnn(C)c56)c3C#N)COC(C)(C)C4)C2(C)C)C1 [Example 13-48, 4-(1,6-dimethyl-1H-indazol-7-yl)-2-(5,5-dimethyl-2-(2-propenoyl)-2,6-diazaspiro[3.4]octan-6-yl)-7,7-dimethyl-7,8-dihydro-5H-pyrano[4,3-b]pyridine-3-carbonitrile] | 664
C=CC(=O)N1CC2(CCN(c3nc4c(c(-c5cnccc5C)c3C#N)C[C@H]3C[C@@H]4C3(C)C)C2)C1 (single isomer, unassigned) [Example 13-124] | 45500
C=CC(=O)N1CC2(CCN(c3nc4c(c(-c5cc(O)cc6cccnc56)c3C#N)C[C@H]3C[C@@H]4C3(C)C)C2)C1 (single isomer, unassigned) [Example 2-44] | 131000
C=CC(=O)N1CC2(CCN(c3nc4c(c(-c5ccc(F)c6sc(N)nc56)c3C)CCC(C)(C)C4)C2)C1 (single isomer, unassigned) [Example 2-18] | 5240
C=CC(=O)N1CC2(CCN(c3nc4c(c(-c5c(C)ccc6cn[nH]c56)c3C)CCC(C)(C)C4)C2)C1 (single isomer, unassigned) [Example 2-25, (M)-1-(6-(3,7,7-trimethyl-4-(6-methyl-1H-indazol-7-yl)-5,6,7,8-tetrahydro-2-quinolinyl)-2,6-diazaspiro[3.4]octan-2-yl)-2-propen-1-one] | 6880
C=CC(=O)N1CC2(CCN(c3nc4c(c(-c5c(Cl)c(C)cc6[nH]ncc56)c3C#N)C[C@H]3C[C@@H]4C3(C)C)C2)C1 [Example 12-18, (1R,9R)-6-(5-chloro-6-methyl-1H-indazol-4-yl)-10,10-dimethyl-4-(2-(2-propenoyl)-2,6-diazaspiro[3.4]octan-6-yl)-3-azatricyclo[7.1.1.0^2,7] undeca-2,4,6-triene-5-carbonitrile] | 988
Cc1ccc2[nH]ncc2c1-c1c(C#N)c(N2CCC3(CN(C(=O)/C=C/CF)C3)C2)nc2c1CCC(C)(C)C2 [Example 13-6, 2-(2-((2E)-4-fluoro-2-butenoyl)-2,6-diazaspiro[3.4]octan-6-yl)-7,7-dimethyl-4-(5-methyl-1H-indazol-4-yl)-5,6,7,8-tetrahydro-3-quinolinecarbonitrile] | 169
C=CC(=O)N1CC2(CCN(c3nc4c(c(-c5c(C)ccc6[nH]ncc56)c3C#N)[C@H]3CC[C@@H]4C3)C2)C1 (single isomer, unassigned) [Example 14-5] | 129
C=CC(=O)N1CC2(CCN(c3nc4c(c(-c5c(C)ccc6cnn(C)c56)c3C#N)CO[C@H](C)C4)C2)C1 [Example 13-141, (7)-2-(2-acryloyl-2,6-diazaspiro[3.4]octan-6-yl)-4-(1,6-dimethyl-1H-indazol-7-yl)-7-methyl-7,8-dihydro-5H-pyrano[4,3-b]pyridine-3-carbonitrile] | 842
C=CC(=O)N1CC2(CCN(c3nc4c(c(-c5cc(O)cc6ccccc56)c3C#N)COC(C)(C)C4)C2)C1 (single isomer, unassigned) [Example 13-42, (M)-4-(3-hydroxy-1-naphthalenyl)-7,7-dimethyl-2-(2-(2-propenoyl)-2,6-diazaspiro[3.4]octan-6-yl)-7,8-dihydro-5H-pyrano[4,3-b]pyridine-3-carbonitrile] | 23300
